Laboratory results from patent US20170216179A1, “COSMETIC AND/OR DERMATOLOGICAL COMPOSITION FOR COLOURING THE SKIN” (AFFICHEM, priority 2014, published 2017).

What was measured:
TRP-2 = assay: Gene expression by RT-qPCR, TRP-2; type: cell-based, murine; conditions: 1 μM, 24 h
Protocol: (§1) Cells were seeded and treated for 24 h with the molecules the action of which we want to study, that is to say here, with DDA (1 μM), on the one hand, and with L7DDA (0.1 or 1 or 2.5 or 5 μM) on the other. The results were compared with irradiated ultraviolet cells as in Example 6.
(§2) To quantify the expression of these genes, RNA extraction from cells was performed. Melanocytes were treated for 24 h with the active molecule or the control agent. 1 mL of Trizol® was added; after 5 min at room temperature, the totality was placed in an Eppendorf tube. 200 μL of CHCl3 were added at 4° C. The Eppendorf tubes were stirred manually, by turning them during 15 sec, left for 5 min at room temperature and then centrifuged at 16000 g at 4° C. for 10 min. The colourless aqueous phase was isolated. 500 μL of isopropanol (−20° C.) were added. The Eppendorf tubes were stirred manually, by turning them during 15 sec, left for 15 min at room temperature and then centrifuged at 16200 g at 4° C. for 10 min. The supernatant was removed. The pellet was washed with 1 mL of 75% ethanol (−20° C.). After centrifugation at 16000 g at 4° C. for 5 min, the supernatant was removed. 10 min after drying, the pellet was resuspended with 30 μL of RNAase-free water. The quantity and purity of RNA were estimated by spectrophotometry (230, 260 and 280 nm). […]

[1] = system: healthy murine melanocytes; assay: Quantification of melanin synthesized by melanocytes; type: cell-based; conditions: cells treated 24 h; relative to control (=100%); FIG. 3
Protocol: Quantification of synthesized melanin by healthy murine melanocytes was performed according to the protocol described by Ando et al. (J. Lipid Res., 1999, 40, 1312).
Cells were seeded and treated for 24 h with the test product or the used vehicle (ethanol) and with, as a positive control, exposure to a dose of 20 mJ/cm^2 of ultraviolet radiation.
5 Million cells were isolated after centrifugation at 1500 rpm for 5 min at 4° C. The pellet was washed twice with PBS and then transferred into an Eppendorf tube and centrifuged at 5000 g for 5 min. The supernatant was removed. 200 μL of water and 1 mL of EtOH/ether (1/1) were added (melanin was insoluble in this mixture). After 15 min at room temperature, the totality was again centrifuged at 5000 g for 5 min; the supernatant was removed. The pellet was then taken up with 300 μL of a solution of NaOH(1M) in H2O/DMSO 90/10 and placed at 80° C. for one hour. Absorbance was measured at 470 nm. The amount of synthesized melanin was expressed based on the control (=100%).

tyrosinase [2] = assay: Stimulation of tyrosinase activity in melanocytes (L-DOPA oxidation); type: cell-based, murine; conditions: cells treated 24 h; with respect to the control (=100%); FIG. 4
Protocol: The study was conducted on healthy murine melanocytes. The results were compared with those obtained with a positive control subjected to a dose of 20 mJ/cm^2 of ultraviolet radiation. The cells were treated for 24 h with either the vehicle used (ethanol) or with the test product. The tyrosinase activity was quantified according to the protocol described by Ando et al. (J. Lipid Res. 1999, 40, 1312) as explained below.
5 Million cells were isolated after centrifugation at 1500 rpm for 5 min at 4° C. The pellet was washed twice with PBS and then transferred into an Eppendorf tube and centrifuged at 5000 g for 5 min. The supernatant was removed. 1 mL of 0.5% by mass sodium deoxycholate solution was added (cell lysis). After 15 min at 0° C., 3 mL of a solution of 0.1% by mass of L-DOPA in 0.1M phosphate buffer (pH 6.8) were added. The whole was placed at 37° C. for 10 min. Tyrosinase activity was spectrophotometrically analysed by following the oxidation of L-DOPA to DOPAchrome. Absorbance was measured at 475 nm. The tyrosinase activity was expressed based on the control (=100%), which determines the cell basal tyrosinase activity.

tyrosinase [3] = assay: Gene expression by RT-qPCR, tyrosinase; type: cell-based, murine; conditions: 1 μM, 24 h
Protocol: as §1, §2

TRP-1 = assay: Gene expression by RT-qPCR, TRP-1; type: cell-based, murine; conditions: 1 μM, 24 h
Protocol: as §1, §2

SMILES: CC(C)CCC[C@@H](C)[C@H]1CC[C@H]2[C@@H]3C[C@@H](NCCc4c[nH]cn4)[C@@]4(O)C[C@@H](O)CC[C@]4(C)[C@H]3CC[C@]12C [DDA, 5α-hydroxy-6β-[2-(1H-imidazol-4-yl)ethylamino]cholestan-3β-ol]
- ΔΔCT (TRP-2) (TRP-2): 6.97
- synthesis of melanin [1]: increase
- tyrosinase activity in cells (tyrosinase [2]): increased
- ΔΔCT (tyrosinase) (tyrosinase [3]): 6.09
- ΔΔCT (TRP-1) (TRP-1): 13.45
